The values that follow come from PubChem BioAssay (NCI).

Test systems include OVCAR-5 ovarian; SF-539 CNS; KM12 colon; HT29 colon; MDA-MB-231 breast; LOX IMVI melanoma; T-47D breast; HCT-15 colon; OVCAR-4 ovarian; MCF7 breast.
What all share (experiment): NCI anticancer screen, dose series, 48 h

Where “and” joins values, the source holds several entries; their conditions need not be identical. Equal values may be shown once.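 Tested at 5 concentrations; 48 h exposure; 96-well plates; endpoints linearly interpolated, else capped at highest concentration. GI50 marks 50% less growth. TGI: total growth inhibition.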

Regarding `COc1ccc(C2=NNC(c3cc(Cc4ccc(O)c(C5CC(c6ccc(OC)cc6)=NN5)c4)ccc3O)C2)cc1` (stereo not given), the GI50 is 17.1 µM in the test on OVCAR-5 ovarian; 22.4 µM in the test on SF-539 CNS; 22.6 µM in the test with KM12 colon; 32.2 µM with HT29 colon; 14.3 µM in the test with MDA-MB-231 breast; 7.38 µM in the test on LOX IMVI melanoma. Further, the GI50 in the test with T-47D breast is 4.61 µM; with HCT-15 colon it was 3.64 µM; in the test with OVCAR-4 ovarian it was 5.36 µM; with MCF7 breast it was 3.3 µM. The TGI with OVCAR-5 ovarian was 88 µM; in the test on SF-539 CNS, above 100 µM; with KM12 colon, above 100 µM; in the test with HT29 colon, above 100 µM; in the test on MDA-MB-231 breast, 83.1 µM; with LOX IMVI melanoma it was 32.3 µM. The TGI with T-47D breast is above 100 µM; in the test on HCT-15 colon it was above 100 µM; in the test with OVCAR-4 ovarian it was above 100 µM; in the test on MCF7 breast, 15 µM.

In the case of `Cc1cc2oc(=O)c(Cl)c(Cl)c2c(C)c1Cl`, the TGI worked out at 27.8 µM in the test with OVCAR-5 ovarian; 21.4 µM in the test with SF-539 CNS; 29.4 µM in the test with KM12 colon; 22.8 µM in the test on HT29 colon; 28.7 µM with MDA-MB-231 breast; 8.84 µM in the test with LOX IMVI melanoma. Besides, the TGI in the test on T-47D breast was 40.2 µM; in the test on HCT-15 colon, 14.3 µM; with OVCAR-4 ovarian it was 15.6 µM; with MCF7 breast it was 23.5 µM.

On to `CC(=O)Nc1cc(C(c2ccccc2)c2ccccc2)cc(C(c2ccccc2)c2ccccc2)c1C`, for which the GI50 was above 100 µM with OVCAR-5 ovarian; above 100 µM in the test with SF-539 CNS; 6.19 µM with KM12 colon; 8.26 µM in the test with HT29 colon; 4.21 µM with MDA-MB-231 breast; 7.98 µM in the test on LOX IMVI melanoma. Moreover, the GI50 with T-47D breast was 3.18 µM; in the test on HCT-15 colon it was 7.12 µM; in the test with OVCAR-4 ovarian, 21.7 µM; in the test with MCF7 breast, 4.77 µM. Besides, the TGI in the test on OVCAR-5 ovarian, in the test with SF-539 CNS, in the test with KM12 colon, in the test with HT29 colon, in the test with MDA-MB-231 breast and in the test on LOX IMVI melanoma was above 100 µM each time. Besides, the TGI in the test with T-47D breast, in the test on HCT-15 colon, in the test on OVCAR-4 ovarian and in the test on MCF7 breast was above 100 µM throughout.

For `O=C(CCCCCNC1=CC(=O)c2ccccc2C1=O)NCCC[Te]c1ccccc1`, the GI50 with OVCAR-5 ovarian was 0.362 µM; in the test on SF-539 CNS, 0.618 µM; in the test on KM12 colon, 0.351 µM; in the test on HT29 colon it was 0.377 µM; in the test with MDA-MB-231 breast it was 0.236 µM; in the test with LOX IMVI melanoma, 0.3 µM. The GI50 was 0.676 µM in the test with T-47D breast, 0.293 µM in the test with HCT-15 colon, 2.21 µM in the test on OVCAR-4 ovarian and 0.327 µM in the test with MCF7 breast. The TGI in the test with OVCAR-5 ovarian turned out to be 1.48 µM; in the test on SF-539 CNS it was 2.15 µM; in the test with KM12 colon, 1.3 µM; in the test with HT29 colon, 1.48 µM; in the test with MDA-MB-231 breast, 0.606 µM; in the test on LOX IMVI melanoma, 1.4 µM. Besides, the TGI with T-47D breast stood at 2.59 µM; with HCT-15 colon it was 1.4 µM; with OVCAR-4 ovarian it was 7.59 µM; in the test with MCF7 breast, 4.66 µM.

Regarding `O=C(NC1CCNCC1)c1[nH]ncc1NC(=O)c1c(Cl)cccc1Cl`, the GI50 in the test with OVCAR-5 ovarian was 0.348 µM and 0.282 µM; in the test on SF-539 CNS, 0.271 µM and 0.257 µM; with KM12 colon, 0.297 µM and 0.305 µM; in the test on HT29 colon it was 0.398 µM and 0.406 µM; with MDA-MB-231 breast, 0.312 µM and 0.276 µM; in the test with LOX IMVI melanoma, 0.281 µM and 0.261 µM. For the same compound, the GI50 with T-47D breast is 1.18 µM and 1.01 µM; in the test on HCT-15 colon, 9.83 µM and 9.93 µM; in the test on OVCAR-4 ovarian, 0.402 µM and 0.383 µM; in the test with MCF7 breast, 0.198 µM and 0.18 µM. The TGI was above 100 µM in the test on OVCAR-5 ovarian; 0.7 µM and 0.666 µM with SF-539 CNS; 1.66 µM and > 10 µM in the test with KM12 colon; 6.29 µM and > 10 µM with HT29 colon; 2.07 µM and > 3.95 µM with MDA-MB-231 breast; above 100 µM in the test on LOX IMVI melanoma. Moreover, the TGI with T-47D breast is above 100 µM; in the test on HCT-15 colon, above 100 µM; with OVCAR-4 ovarian it was 14 µM and > 10 µM; in the test on MCF7 breast, above 100 µM.

On to `NC(Cn1ccc(=O)c(O)c1)C(=O)O` (stereo not given), for which the TGI with OVCAR-5 ovarian, with SF-539 CNS, in the test with KM12 colon, in the test on HT29 colon, in the test with MDA-MB-231 breast and in the test on LOX IMVI melanoma was above 100 µM each time. Also, the TGI with T-47D breast, in the test on HCT-15 colon, in the test on OVCAR-4 ovarian and with MCF7 breast was above 100 µM throughout.

In the case of `Cc1cc(C(=O)N2CCN(C)CC2)c2c(=O)n(-c3ccccc3)c(=O)n(CC(O)CN3CCN(c4ncccn4)CC3)c2n1` (stereo not given), the GI50 in the test with OVCAR-5 ovarian, with SF-539 CNS, in the test with KM12 colon, with HT29 colon, in the test on MDA-MB-231 breast and with LOX IMVI melanoma was above 100 µM each time. Besides, the GI50 in the test with T-47D breast, with HCT-15 colon, in the test on OVCAR-4 ovarian and with MCF7 breast was above 100 µM in each case. In addition, the TGI with OVCAR-5 ovarian, in the test on SF-539 CNS, in the test on KM12 colon, in the test on HT29 colon, with MDA-MB-231 breast and in the test on LOX IMVI melanoma was above 100 µM each time. The TGI with T-47D breast, in the test with HCT-15 colon, with OVCAR-4 ovarian and in the test with MCF7 breast was above 100 µM each time.

For the compound `C[C@@H](Oc1cc(-c2cnn(C3CC4(CNC4)C3)c2)cnc1N)c1c(Cl)ccc(F)c1Cl`, the GI50 was 1.82 µM in the test on OVCAR-5 ovarian; 2.51 µM in the test on SF-539 CNS; 0.111 µM in the test on KM12 colon; 1.7 µM with HT29 colon; 2.23 µM in the test on MDA-MB-231 breast; 1.96 µM in the test on LOX IMVI melanoma. The GI50 in the test on T-47D breast was 3.89 µM; with HCT-15 colon, 4.04 µM; with OVCAR-4 ovarian, 9.15 µM; in the test with MCF7 breast, 0.532 µM. In addition, the TGI with OVCAR-5 ovarian worked out at 14.2 µM; in the test on SF-539 CNS, 7.89 µM; in the test on KM12 colon it was 7.42 µM; with HT29 colon, 5.98 µM; in the test on MDA-MB-231 breast, 14.4 µM; in the test on LOX IMVI melanoma, 6.79 µM. Further, the TGI came out at 16.7 µM in the test on T-47D breast, 15.1 µM in the test on HCT-15 colon, 22.7 µM with OVCAR-4 ovarian and 5 µM with MCF7 breast.
